Literature values as cited in publication PMC3065533 (Journal of nuclear medicine : official publication, Society …, 2011).

Target: melanocortin-1 (MC1) receptor (Mus musculus, UniProt Q01727)
Details: stated in methods without reference

melanocortin-1 (MC1) receptor, sequence (Q01727 whole entry): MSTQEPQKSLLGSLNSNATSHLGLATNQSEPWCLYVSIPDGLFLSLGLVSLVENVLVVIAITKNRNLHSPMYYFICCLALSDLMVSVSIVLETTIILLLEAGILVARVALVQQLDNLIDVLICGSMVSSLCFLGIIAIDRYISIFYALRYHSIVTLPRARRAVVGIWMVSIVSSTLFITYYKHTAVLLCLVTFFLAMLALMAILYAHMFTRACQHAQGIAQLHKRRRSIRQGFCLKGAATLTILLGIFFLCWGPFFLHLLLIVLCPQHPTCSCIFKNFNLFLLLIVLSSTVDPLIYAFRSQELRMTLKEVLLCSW

MC1 receptor binding affinity (in words): picomolar
Substance: NDP-MSH
